From patent publication US20240166652A1, “MODULATORS OF THE INTEGRATED STRESS PATHWAY” (Calico Life Sciences LLC, priority 2017, published 2024)

Test system: ATF4 luciferase reporter in HEK293T cells
Assay: ATF4-Luc assay (ATF4 luciferase reporter, tunicamycin-treated HEK293T cells)
Type: cell-based, human
Details: Homo sapiens, HEK-293T; HEK293T cells carrying the ATF4 luciferase reporter, 1 μg/mL tunicamycin, 7 hours

Compound	EC50
O=C(COc1cc(F)c2cn[nH]c2c1)NC12CCC(NC(=O)COc3ccc(OC(F)(F)F)c(F)c3)(CC1)[C@@H](O)C2 [Compound 724]	< 10 nM
O=C(COc1cc(F)c2cn[nH]c2c1)NC12CCC(NC(=O)COc3ccc(Cl)cc3)(CC1)[C@@H](O)C2 [Compound 725, 2-(4-chlorophenoxy)-N-[(25)-4-{2-[(4-fluoro-1H-indazol-6-yl)oxy]acetamido}-2-hydroxybicyclo[2.2.2]octan-1-yl]acetamide]	< 10 nM
O=C(COc1ccc2c(c1)OC(F)(F)O2)NC12CCC(NC(=O)COc3ccc(Cl)c(F)c3)(CC1)[C@@H](O)C2 [Compound 726, 2-(4-chloro-3-fluorophenoxy)-N-[(2S)-4-{2-[(2,2-difluoro-2H-1,3-benzodioxol-5-yl)oxy]acetamido}-2-hydroxybicyclo[2.2.2]octan-1-yl]acetamide]	< 10 nM
O=C(COc1cc(F)c2cn[nH]c2c1)NC12CCC(NC(=O)COc3ccc(Cl)c(F)c3)(CC1)[C@@H](O)C2 [Compound 727, 2-(4-chloro-3-fluorophenoxy)-N-[(2S)-4-{2-[(4-fluoro-1H-indazol-6-yl)oxy]acetamido}-2-hydroxybicyclo[2.2.2]octan-1-yl]acetamide]	< 10 nM
O=C(COc1cc(F)c2cn[nH]c2c1)NC12CCC(NC(=O)COc3ccc(F)c(F)c3)(CC1)[C@@H](O)C2 [Compound 728, 2-(3,4-difluorophenoxy)-N-[(2S)-4-{2-[(4-fluoro-1H-indazol-6-yl)oxy]acetamido}-2-hydroxybicyclo[2.2.2]octan-1-yl]acetamide]	< 10 nM
O=C(CCOc1ccc(Cl)c(F)c1)NC12CCC(NC(=O)COc3ccc(Cl)cc3)(CC1)CC2 [Compound 729, 3-(4-chloro-3-fluorophenoxy)-N-{4-[2-(4-chlorophenoxy)acetamido]bicyclo[2.2.2]octan-1-yl}propanamide]	50 to 250 nM
O=C(CCOc1ccc(Cl)c(F)c1)NC12CC(NC(=O)COc3ccc(Cl)c(F)c3)(C1)C2 [Compound 730, 3-(4-chloro-3-fluorophenoxy)-N-{3-[2-(4-chloro-3-fluorophenoxy)acetamido]bicyclo[1.1.1]pentan-1-yl}propanamide]	10 to 50 nM
Cc1ccc(OCC(=O)NC23CCC(NC(=O)COc4ccc(F)cc4)(CC2)[C@@H](O)C3)cc1F [Compound 731, 2-(3-fluoro-4-methylphenoxy)-N-{(3S)-4-[2-(4-fluorophenoxy)acetamido]-3-hydroxybicyclo[2.2.2]octan-1-yl}acetamide]	< 10 nM
Cc1ccc(OCC(=O)NC23CCC(NC(=O)COc4ccc(Cl)cc4)(CC2)[C@@H](O)C3)cc1F [Compound 732, 2-(4-chlorophenoxy)-N-{(2S)-4-[2-(3-fluoro-4-methylphenoxy)acetamido]-2-hydroxybicyclo[2.2.2]octan-1-yl}acetamide]	< 10 nM
Cc1ccc(OCC(=O)NC23CCC(NC(=O)COc4ccc(OC(F)(F)F)c(F)c4)(CC2)[C@@H](O)C3)cc1F [Compound 733, 2-(3-fluoro-4-methylphenoxy)-N-[(3S)-4-{2-[3-fluoro-4-(trifluoromethoxy)phenoxy]acetamido}-3-hydroxybicyclo[2.2.2]octan-1-yl]acetamide]	< 10 nM
Cc1ccc(OCC(=O)NC23CCC(NC(=O)COc4ccc(F)c(F)c4)(CC2)[C@@H](O)C3)cc1F [Compound 734, 2-(3,4-difluorophenoxy)-N-{(2S)-4-[2-(3-fluoro-4-methylphenoxy)acetamido]-2-hydroxybicyclo[2.2.2]octan-1-yl}acetamide]	< 10 nM
Cc1ccc(OCC(=O)NC23CCC(NC(=O)COc4cc(F)c5cn[nH]c5c4)(CC2)[C@@H](O)C3)cc1F [Compound 735]	< 10 nM
Cc1ccc(OCC(=O)NC23CCC(NC(=O)COc4ccc(OC(F)(F)F)cc4)(CC2)[C@@H](O)C3)cc1F [Compound 736, 2-(3-fluoro-4-methylphenoxy)-N-[(3S)-3-hydroxy-4-{2-[4-(trifluoromethoxy)phenoxy]acetamido}bicyclo[2.2.2]octan-1-yl]acetamide]	< 10 nM
Cc1ccc(OCC(=O)NC23CCC(NC(=O)COc4ccc(Cl)c(F)c4)(CC2)[C@@H](O)C3)cc1F [Compound 737, 2-(4-chloro-3-fluorophenoxy)-N-{(2S)-4-[2-(3-fluoro-4-methylphenoxy)acetamido]-2-hydroxybicyclo[2.2.2]octan-1-yl}acetamide]	< 10 nM
O=C(COc1ccc(Cl)c(F)c1)NC12CCC(NC(=O)COc3cc(F)c4cn[nH]c4c3)(CC1)[C@@H](O)C2 [Compound 738, 2-(4-chloro-3-fluorophenoxy)-N-[(3S)-4-{2-[(4-fluoro-1H-indazol-6-yl)oxy]acetamido}-3-hydroxybicyclo[2.2.2]octan-1-yl]acetamide]	< 10 nM
O=C(COc1ccc(Cl)cc1)NC12CCC(NC(=O)COc3cc(F)c4cn[nH]c4c3)(CC1)CC2 [Compound 739, 2-(4-chlorophenoxy)-N-(4-{2-[(4-fluoro-1H-indazol-6-yl)oxy]acetamido}bicyclo[2.2.2]octan-1-yl)acetamide]	< 10 nM

Compound	EC50
O=C(COc1ccc(Cl)cc1)NC12CCC(NC(=O)COc3ccc(F)c(F)c3)(CC1)CC2 [Compound 740, 2-(4-chlorophenoxy)-N-{4-[2-(3,4-difluorophenoxy)acetamido]bicyclo[2.2.2]octan-1-yl}acetamide]	10 to 50 nM
O=C(COc1ccc(Cl)cc1)NC12CCC(NC(=O)COc3ccc(OC(F)(F)F)c(F)c3)(CC1)CC2 [Compound 741, 2-(4-chlorophenoxy)-N-(4-{2-[3-fluoro-4-(trifluoromethoxy)phenoxy]acetamido}bicyclo[2.2.2]octan-1-yl)acetamide]	10 to 50 nM
O=C(COc1ccc(Cl)cc1)NC12CCC(NC(=O)COc3ccc4c(c3)OC(F)(F)O4)(CC1)CC2 [Compound 742, 2-(4-chlorophenoxy)-N-(4-{2-[(2,2-difluoro-2H-1,3-benzodioxol-5-yl)oxy]acetamido}bicyclo[2.2.2]octan-1-yl)acetamide]	< 10 nM
O=C(COc1ccc(Cl)cc1)NC12CCC(NC(=O)COc3ccc(F)c(Cl)c3)(CC1)CC2 [Compound 743, 2-(3-chloro-4-fluorophenoxy)-N-{4-[2-(4-chlorophenoxy)acetamido]bicyclo[2.2.2]octan-1-yl}acetamide]	< 10 nM
O=C(COc1ccc(Cl)cc1)NC12CCC(NC(=O)COc3ccc(Cl)cc3)(CC1)CC2 [Compound 744, N,N′-(bicyclo[2.2.2]octane-1,4-diyl)bis[2-(4-chlorophenoxy)acetamide]]	< 10 nM
Cc1ccc(OCC(=O)NC23CCC(NC(=O)COc4ccc5c(C)n[nH]c5c4)(CC2)[C@@H](O)C3)cc1 [Compound 746, N-{(2S)-2-hydroxy-4-[2-(4-methylphenoxy)acetamido]bicyclo[2.2.2]octan-1-yl}-2-[(3-methyl-1H-indazol-6-yl)oxy]acetamide]	10 to 50 nM
Cc1n[nH]c2cc(OCC(=O)NC34CCC(NC(=O)COc5ccc(OC(F)(F)F)c(F)c5)(CC3)C[C@@H]4O)ccc12 [Compound 747, 2-[3-fluoro-4-(trifluoromethoxy)phenoxy]-N-[(3S)-3-hydroxy-4-{2-[(3-methyl-1H-indazol-6-yl)oxy]acetamido}bicyclo[2.2.2]octan-1-yl]acetamide]	10 to 50 nM
O=C(COc1ccc(Cl)c(F)c1)NC12CCC(NC(=O)CNc3ccc(Cl)c(F)c3)(CC1)[C@@H](O)C2 [Compound 748, 2-(4-chloro-3-fluoroanilino)-N-{(2S)-4-[2-(4-chloro-3-fluorophenoxy)acetamido]-2-hydroxybicyclo[2.2.2]octan-1-yl}acetamide]	10 to 50 nM
Cc1n[nH]c2cc(OCC(=O)NC34CCC(NC(=O)COc5ccc(Cl)c(F)c5)(CC3)C[C@@H]4O)ccc12 [Compound 749, 2-(4-chloro-3-fluorophenoxy)-N-[(3S)-3-hydroxy-4-{2-[(3-methyl-1H-indazol-6-yl)oxy]acetamido}bicyclo[2.2.2]octan-1-yl]acetamide]	< 10 nM
O=C(COc1ccc(Cl)c(F)c1)NC12CCC(NC(=O)COc3ccc(OC(F)(F)F)c(F)c3)(CC1)[C@@H](O)C2 [Compound 750, 2-(4-chloro-3-fluorophenoxy)-N-[(3S)-4-{2-[3-fluoro-4-(trifluoromethoxy)phenoxy]acetamido}-3-hydroxybicyclo[2.2.2]octan-1-yl]acetamide]	< 10 nM
CS(=O)(=O)c1cc(F)ccc1OCC(=O)NC12CCC(NC(=O)COc3ccc(Cl)c(F)c3)(CC1)[C@@H](O)C2 [Compound 751, 2-(4-chloro-3-fluorophenoxy)-N-[(2S)-4-{2-[4-fluoro-2-(methanesulfonyl)phenoxy]acetamido}-2-hydroxybicyclo[2.2.2]octan-1-yl]acetamide]	> 2000 nM
CN1C(=O)COc2c(OCC(=O)NC34CCC(NC(=O)COc5ccc(Cl)c(F)c5)(CC3)[C@@H](O)C4)cc(Cl)cc21 [Compound 752, 2-(4-chloro-3-fluorophenoxy)-N-[(2S)-4-{2-[(6-chloro-4-methyl-3-oxo-3,4-dihydro-2H-1,4-benzoxazin-8-yl)oxy]acetamido}-2-hydroxybicyclo[2.2.2]octan-1-yl]acetamide]	500 to 2000 nM
Cc1ccnc(OCC(=O)NC23CCC(NC(=O)COc4ccc(Cl)c(F)c4)(CC2)C[C@@H]3O)n1 [Compound 753, 2-(4-chloro-3-fluorophenoxy)-N-[(3S)-3-hydroxy-4-{2-[(4-methylpyrimidin-2-yl)oxy]acetamido}bicyclo[2.2.2]octan-1-yl]acetamide]	250 to 500 nM
O=C1COc2c(cc(Cl)cc2OCC(=O)NC23CCC(NC(=O)COc4ccc(Cl)c(F)c4)(CC2)[C@@H](O)C3)N1 [Compound 754, 2-(4-chloro-3-fluorophenoxy)-N-[(2S)-4-{2-[(6-chloro-3-oxo-3,4-dihydro-2H-1,4-benzoxazin-8-yl)oxy]acetamido}-2-hydroxybicyclo[2.2.2]octan-1-yl]acetamide]	> 2000 nM
Cc1cc(F)ccc1OCC(=O)NC12CCC(NC(=O)COc3ccc(Cl)c(F)c3)(CC1)[C@@H](O)C2 [Compound 755, 2-(4-chloro-3-fluorophenoxy)-N-{(2S)-4-[2-(4-fluoro-2-methylphenoxy)acetamido]-2-hydroxybicyclo[2.2.2]octan-1-yl}acetamide]	< 10 nM
